Data published in patent US9187490B2, “Dimeric IAP inhibitors” (TetraLogic Pharmaceuticals Corporation, priority 2005, dated 2015).
pKd: −log10 of the molar value.

Target: T1, XIAP-BIR3 (Homo sapiens, UniProt P98170)
T1 construct: 40 nM of XIAP-BIR3 for 15 min at RT
Assay: XIAP BIR-3 fluorescence polarization binding assay
Conditions: for pKd: 5 nM AbuRPF-K(5-Fam)-NH2, 40 nM XIAP-BIR3, 15 min RT, pH 7.5, read-out: KD Range
Method: Following incubation, the polarization values (mP) were measured on a Victor^2V using a 485 nm excitation filter and a 520 nm emission filter. IC50 values were determined from the plot using nonlinear least-squares analysis using GraphPad Prism.

T1 sequence (P98170 241-356 limits assumed): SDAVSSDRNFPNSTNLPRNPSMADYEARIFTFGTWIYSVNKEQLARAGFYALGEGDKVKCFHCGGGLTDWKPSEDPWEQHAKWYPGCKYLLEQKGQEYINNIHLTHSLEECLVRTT

| Structure (SMILES) | pKd | increase in binding affinity relative to the Smac tetrapeptide (AVPI) (XIAP BIR-3, FIG. 1) |
| --- | --- | --- |
| CNC(C)C(=O)NC(C(=O)N1CCCC1Cc1c(-c2ccc(-c3c(CC4CCCN4C(=O)C(NC(=O)C(C)NC)C(C)(C)C)c4ccc(F)cc4n3CCO)cc2)n(CCO)c2cc(F)ccc12)C(C)(C)C (single isomer, unassigned) [Entry 60] | 5.00 to 6.00 | – |
| CC(N)C(=O)NC(C(=O)N1CCCC1Cc1c(-c2ccc(-c3oc4ccccc4c3CC3CCCN3C(=O)C(NC(=O)C(C)N)C(C)C)cc2)oc2ccccc12)C(C)C (single isomer, unassigned) [Entry 61] | < 5.00 | – |
| CNC(C)C(=O)NC(C(=O)N1CCCC1Cc1c(-c2ccc(-c3c(CC4CCCN4C(=O)C(NC(=O)C(C)NC)C(C)(C)C)c4ccc(F)cc4n3CCO)cc2)n(CCO)c2cc(F)ccc12)C(C)(C)C (single isomer, unassigned) [Entry 487] | > 7.00 | – |
| CC(C)[C@H](NC(=O)[C@H](C)N)C(=O)N1CCC[C@H]1Cc1c(/C=C/c2oc3ccccc3c2C[C@@H]2CCCN2C(=O)[C@@H](NC(=O)[C@H](C)N)C(C)C)oc2ccccc12 [Entry 2] | > 7.00 | – |
| CC(C)[C@H](NC(=O)[C@H](C)N)C(=O)N1CCC[C@H]1Cc1c(CCc2oc3ccccc3c2C[C@@H]2CCCN2C(=O)[C@@H](NC(=O)[C@H](C)N)C(C)C)oc2ccccc12 [Entry 3] | > 7.00 | – |
| CC(C)[C@H](NC(=O)CN)C(=O)N1CCC[C@H]1Cc1c(-c2ccc(-c3oc4ccccc4c3C[C@@H]3CCCN3C(=O)[C@@H](NC(=O)[C@H](C)N)C(C)C)cc2)oc2ccccc12 [Entry 4] | > 7.00 | – |
| C[C@H](N)C(=O)N[C@H](C(=O)N1CCC[C@H]1Cc1c(-c2ccc(-c3oc4ccccc4c3C[C@@H]3CCCN3C(=O)[C@@H](NC(=O)[C@H](C)N)C(C)(C)C)cc2)oc2ccccc12)C(C)(C)C [Entry 7] | > 7.00 | – |
| CN[C@@H](C)C(=O)N[C@H](C(=O)N1CCC[C@H]1Cc1c(-c2ccc(-c3oc4ccccc4c3C[C@@H]3CCCN3C(=O)[C@@H](NC(=O)[C@H](C)NC)C(C)(C)C)cc2)oc2ccccc12)C(C)(C)C [Entry 8] | > 7.00 | – |
| CC[C@H](N)C(=O)N[C@H](C(=O)N1CCC[C@H]1Cc1c(-c2ccc(-c3oc4ccccc4c3C[C@@H]3CCCN3C(=O)[C@@H](NC(=O)[C@@H](N)CC)C(C)(C)C)cc2)oc2ccccc12)C(C)(C)C [Entry 9] | 6.00 to 7.00 | – |
| CN[C@@H](C)C(=O)N[C@H](C(=O)N1CCC[C@H]1Cc1c(-c2ccc(-c3oc4ccccc4c3C[C@@H]3CCCN3C(=O)[C@@H](NC(=O)[C@H](C)NC)C(C)C)cc2)oc2ccccc12)C(C)C [Entry 10] | > 7.00 | – |
| CC[C@H](N)C(=O)N[C@H](C(=O)N1CCC[C@H]1Cc1c(-c2ccc(-c3oc4ccccc4c3C[C@@H]3CCCN3C(=O)[C@@H](NC(=O)[C@@H](N)CC)C(C)C)cc2)oc2ccccc12)C(C)C [Entry 11] | > 7.00 | – |
| C[C@H](N)C(=O)N[C@H](C(=O)N1CCC[C@H]1Cc1c(-c2ccc(-c3oc4ccccc4c3C[C@@H]3CCCN3C(=O)[C@@H](NC(=O)[C@H](C)N)C3CCCCC3)cc2)oc2ccccc12)C1CCCCC1 [Entry 12] | > 7.00 | – |
| CN[C@@H](C)C(=O)N[C@H](C(=O)N1CCC[C@H]1Cc1c(-c2ccc(-c3oc4ccccc4c3C[C@@H]3CCCN3C(=O)[C@@H](NC(=O)[C@H](C)NC)C3CCCCC3)cc2)oc2ccccc12)C1CCCCC1 [Entry 13] | > 7.00 | – |
| CC[C@H](N)C(=O)N[C@H](C(=O)N1CCC[C@H]1Cc1c(-c2ccc(-c3oc4ccccc4c3C[C@@H]3CCCN3C(=O)[C@@H](NC(=O)[C@@H](N)CC)C3CCCCC3)cc2)oc2ccccc12)C1CCCCC1 [Entry 14] | 6.00 to 7.00 | – |
| CN[C@@H](C)C(=O)N[C@H](C(=O)N1CCC[C@H]1Cc1c(-c2ccc(-c3oc4ccccc4c3C[C@@H]3CCCN3C(=O)[C@@H](NC(=O)[C@H](C)NC)[C@@H](C)O)cc2)oc2ccccc12)[C@@H](C)O [Entry 15] | > 7.00 | – |
| CN[C@@H](C)C(=O)N[C@H](C(=O)N1CCC[C@H]1Cc1c(-c2ccc(-c3[nH]c4cc(F)ccc4c3C[C@@H]3CCCN3C(=O)[C@@H](NC(=O)[C@H](C)NC)C(C)C)cc2)[nH]c2cc(F)ccc12)C(C)C [Entry 16] | > 7.00 | – |
| CC(C)[C@H](NC(=O)[C@H](C)N)C(=O)N1CCC[C@H]1Cc1c(-c2ccc(-c3[nH]c4cc(F)ccc4c3C[C@@H]3CCCN3C(=O)[C@@H](NC(=O)[C@H](C)N)C(C)C)s2)[nH]c2cc(F)ccc12 [Entry 17] | > 7.00 | 30,000 fold |
| CN[C@@H](C)C(=O)N[C@H](C(=O)N1CCC[C@H]1Cc1c(-c2ccc(-c3[nH]c4cc(F)ccc4c3C[C@@H]3CCCN3C(=O)[C@@H](NC(=O)[C@H](C)NC)C3CCCCC3)s2)[nH]c2cc(F)ccc12)C1CCCCC1 [Entry 18] | > 7.00 | – |
| C[C@H](N)C(=O)N[C@H](C(=O)N1CCC[C@H]1Cc1c(-c2ccc(-c3[nH]c4cc(F)ccc4c3C[C@@H]3CCCN3C(=O)[C@@H](NC(=O)[C@H](C)N)C3CCCCC3)cc2)[nH]c2cc(F)ccc12)C1CCCCC1 [Entry 19] | > 7.00 | – |
| CN[C@@H](C)C(=O)N[C@H](C(=O)N1CCC[C@H]1Cc1c(-c2ccc(-c3[nH]c4cc(F)ccc4c3C[C@@H]3CCCN3C(=O)[C@@H](NC(=O)[C@H](C)NC)C3CCCCC3)cc2)[nH]c2cc(F)ccc12)C1CCCCC1 [Entry 20] | > 7.00 | – |
| CN[C@@H](C)C(=O)N[C@H](C(=O)N1C[C@H](O)C[C@H]1Cc1c(-c2ccc(-c3[nH]c4ccccc4c3C[C@@H]3C[C@@H](O)CN3C(=O)[C@@H](NC(=O)[C@H](C)NC)C(C)C)cc2)[nH]c2ccccc12)C(C)C [Entry 21] | 6.00 to 7.00 | – |
| CN[C@@H](C)C(=O)N[C@H](C(=O)N1C[C@H](O)C[C@H]1Cc1c(-c2ccc(-c3[nH]c4ccccc4c3C[C@@H]3C[C@@H](O)CN3C(=O)[C@@H](NC(=O)[C@H](C)NC)C(C)(C)C)cc2)[nH]c2ccccc12)C(C)(C)C [Entry 22] | 6.00 to 7.00 | – |
| CN[C@@H](C)C(=O)N[C@H](C(=O)N1CCC[C@H]1Cc1c(-c2ccc(-c3[nH]c4ccc(F)cc4c3C[C@@H]3CCCN3C(=O)[C@@H](NC(=O)[C@H](C)NC)C(C)C)cc2)[nH]c2ccc(F)cc12)C(C)C [Entry 23] | > 7.00 | – |
| CN[C@@H](C)C(=O)N[C@H](C(=O)N1C[C@@H](O)C[C@H]1Cc1c(-c2ccc(-c3[nH]c4ccccc4c3C[C@@H]3C[C@H](O)CN3C(=O)[C@@H](NC(=O)[C@H](C)NC)C(C)(C)C)cc2)[nH]c2ccccc12)C(C)(C)C [Entry 24] | > 7.00 | – |
| CN[C@@H](C)C(=O)N[C@H](C(=O)N1CCC[C@H]1Cc1c(-c2ccc(-c3[nH]c4cc(F)ccc4c3C[C@@H]3CCCN3C(=O)[C@@H](NC(=O)[C@H](C)NC)[C@@H](C)OCc3ccccc3)cc2)[nH]c2cc(F)ccc12)[C@@H](C)OCc1ccccc1 [Entry 25] | > 7.00 | – |
| CN[C@@H](C)C(=O)N[C@H](C(=O)N1CCC[C@H]1Cc1c(-c2ccc(-c3[nH]c4cc(F)ccc4c3C[C@@H]3CCCN3C(=O)[C@@H](NC(=O)[C@H](C)NC)[C@@H](C)OCc3ccccc3)cc2)[nH]c2cc(F)ccc12)[C@@H](C)O [Entry 26] | > 7.00 | – |
| CN[C@@H](C)C(=O)N[C@H](C(=O)N1CCC[C@H]1Cc1c(-c2ccc(-c3[nH]c4cc(F)ccc4c3C[C@@H]3CCCN3C(=O)[C@@H](NC(=O)[C@H](C)NC)[C@@H](C)O)cc2)[nH]c2cc(F)ccc12)[C@@H](C)O [Entry 27] | > 7.00 | – |
| CN[C@@H](C)C(=O)N[C@H](C(=O)N1C[C@@H](O)C[C@H]1Cc1c(-c2ccc(-c3[nH]c4cc(F)ccc4c3C[C@@H]3C[C@H](O)CN3C(=O)[C@@H](NC(=O)[C@H](C)NC)[C@@H](C)O)cc2)[nH]c2cc(F)ccc12)[C@@H](C)O [Entry 28] | > 7.00 | – |
